From PubChem BioAssay AID1117351
Activity calls are given as the source filed them. How the calls were made is not given here.

System: HeLa cells, 4N DNA content increase
Test: rise of 4N DNA cells, HeLa – IC50, dose response (AID 1117351)

| IC50 | SMILES |
| --- | --- |
| > 10 µM (inactive) | CCCCCCCCCCCCCC[N+](C)(C)C |
| > 10 µM (inactive) | CCCCCCCCCCCC(=O)[O][Sn]([CH2]CCC)([CH2]CCC)[O]C(=O)CCCCCCCCCCC |
| > 10 µM (inactive) | C[n+]1c2cc(N)ccc2cc2ccc(N)cc21 (tested in a mixture with another compound) |

| SMILES | IC50 |
| --- | --- |
| Cc1ccc([N+](=O)[O-])[c]2c1[O][Hg]2 | > 10 µM (inactive) |
